Experimental data as given in publication PMC4451856, “Identification of a Peptide from In vivo Bacteriophage Display with Homology to EGFL6: A Candidate Tumor Vasculature Ligand in Breast Cancer” (Journal of molecular biomarkers & diagnosis, 2014).
Peptide text beside a SMILES is read from it. * marks the point of attachment. DOTA = O=C(O)CN1CCN(CC(=O)O)CCN(CC(=O)*)CCN(CC(=O)O)CC1

Tests used:
[1] = in vivo; set-up: species or system SCID mice; settings: SCID (outbred, Taconic), mouse, iv, total radioactivity
Procedure: Four- to 6-week-old Severe Combined Immunodeficient (SCID) out bred mice (Taconic, Germantown, NY) was maintained in approved pathogen-free institutional housing. Animal studies were conducted as outlined in the NIH Guidelines for the Care and Use of Laboratory Animals and the Policy and Procedures for Animal Research of the Harry S. Truman Veterans Memorial Hospital. MDA-MB-435 human breast cancer xenografts (5×10^6) were established by subcutaneous injection into the flank of SCID mice. Mice were utilized when visual tumors (~1–3mm^3) formed after approximately 5 weeks.
DOTA-EGFL6 peptide was radiolabeled with ^111In and purified peptide was prepared at 1.85 MBq/mL in sterile PBS. Three mice bearing MDA-MB-435 tumors were intravenously injected with ^111In-DOTA-EGFL6 and sacrificed at 2 h. Organs and tissues pertinent to tumor uptake and clearance were excised, weighed, and counted by gamma counter. Percentage of injected dose per gram (%ID/g) of tissue was reported to normalize uptake by tissue mass.

[2] = tested on: MDA-MB-435 human breast cancer xenograft; assay type: in vivo, SCID mice; settings: 2 h post-injection, intravenous
Procedure: Four- to 6-week-old Severe Combined Immunodeficient (SCID) out bred mice (Taconic, Germantown, NY) was maintained in approved pathogen-free institutional housing. Animal studies were conducted as outlined in the NIH Guidelines for the Care and Use of Laboratory Animals and the Policy and Procedures for Animal Research of the Harry S. Truman Veterans Memorial Hospital. MDA-MB-435 human breast cancer xenografts (5×10^6) were established by subcutaneous injection into the flank of SCID mice. Mice were utilized when visual tumors (~1–3mm^3) formed after approximately 5 weeks. Radiolabeled, purified ^111In-DOTA-GSG-EGFL6 was diluted to 11.1 MBq in 100 µL of sterile PBS. The peptide was injected intravenously in a mouse bearing an MDA-MB-435 human breast cancer xenograft. Following injection, radiolabeled peptide was permitted to circulate for 2h, followed by euthanization by carbon dioxide. The treated mouse was imaged at the Harry S. Truman Veterans Memorial Hospital Biomolecular Imaging Center. Overnight (7h) image acquisition was performed with a Siemens Inveon Micro-SPECT/CT (Siemens, Knoxville, TN) equipped with mouse whole body 1.0 mm collimators. Data were processed with Inveon Research Workplace processing software and fan beam (Feldkamp) filtered back projection algorithms were used for reconstruction of the CT tomographic image.

[3] = tested on: MDA-MB-468 cells; test: 111In-DOTA-EGFL6 cell binding; assay type: cell-based, human; settings: 37°C, 1 h, gamma counter, mean ± SD of 4 samples
Procedure: (§1) DOTA-EGFL6 was diluted to 1 mg/mL in water and incubated with 0.1 M ammonium acetate (pH 5) and 18.5 MBq of ^111In at 80°C for 1 h. Reactions were quenched by addition of 10 µM EDTA. Radiolabeled peptide was purified by reverse phase HPLC using a linear gradient of acetonitrile plus 0.1% trifluoroacetic acid from 5–95% over 35 minutes. Acetonitrile was evaporated by nitrogen gas flow, and peptide was d iluted to appropriate concentration using sterile PBS.
(§2) MDA-MB-435, MDA-MB-468, SK-BR-3 and HEK-293 cells were diluted to 2×10^6 cells/mL in Dulbelco’s Modified Eagle Medium (DMEM) with 0.1 mg/mL BSA. ^111In-DOTA-EGFL6 was diluted to 1×10^7 CPM/mL in DMEM plus 0.1% BSA and 100 µL of peptide was added to 200 µL of cells and incubated at 37°C for 1 h. Cells were washed three times with ice-cold PBS with 1% BSA and counted via gamma counter.

[4] = tested on: MDA-MB-435 cells; test: 111In-DOTA-EGFL6 cell binding; assay type: cell-based, human; settings: 37°C, 1 h, gamma counter, mean ± SD of 4 samples
Procedure: as §1, §2

[5] = tested on: SK-BR-3 cells; test: 111In-DOTA-EGFL6 cell binding; assay type: cell-based, human; settings: 37°C, 1 h, gamma counter, mean ± SD of 4 samples
Procedure: as §1, §2

[6] = tested on: HEK-293 cells; test: 111In-DOTA-EGFL6 cell binding; assay type: cell-based, human; settings: 37°C, 1 h, gamma counter, mean ± SD of 4 samples
Procedure: as §1, §2

[7] = tested on: MDA-MB-435 cells; settings: ref Previous work (reference number not given); cited from earlier work
[8] = tested on: MDA-MB-468 cells; test: Biotinylated peptide fluorescent microscopy; assay type: cell-based, human; settings: fixed MDA-MB-468 cells, 10 µM biotinylated peptide in PBS, 1 h room temperature, Neutravidin Texas Red detection
Procedure: (§3) All cell lines were grown to 80% confluency and fixed with 4% paraformaldehyde. Cells were dried onto microscope slides overnight followed by rehydration with PBS. Slides were blocked with 5% BSA in PBS for 2 h at room temperature. Biotinylated EGFL6 peptide was diluted to 10 µM in PBS and 100 µL was added to each cell sample for incubation at room temperature for 1 h. Slides were washed 3 times with 0.1% TBST and cells were incubated with Neutravidin Texas Red (Life Technologies, Rockville, MD) diluted to 5 µg/mL in 0.1% TBST for 1 h at room temperature. Washing was performed in the same manner and cells were visualized by an epifluorescent Nikon T1-SM inverted microscope (Nikon, Melville, NY).

[9] = tested on: MDA-MB-435 cells; test: Biotinylated peptide fluorescent microscopy; assay type: cell-based, human; settings: fixed MDA-MB-435 cells, 10 µM biotinylated peptide in PBS, 1 h room temperature, Neutravidin Texas Red detection
Procedure: as §3

[10] = tested on: HEK-293 cells; test: Biotinylated peptide fluorescent microscopy; assay type: cell-based, human; settings: fixed HEK-293 cells, 10 µM biotinylated peptide in PBS, 1 h room temperature, Neutravidin Texas Red detection
Procedure: as §3

[11] = tested on: SK-BR-3 cells; test: Biotinylated peptide fluorescent microscopy; assay type: cell-based, human; settings: fixed SK-BR-3 cells, 10 µM biotinylated peptide in PBS, 1 h room temperature, Neutravidin Texas Red detection
Procedure: as §3

Compound: C[C@H](NC(=O)[C@H](Cc1c[nH]c2ccccc12)NC(=O)[C@H](CCCCN)NC(=O)[C@@H](NC(=O)CNC(=O)CNC(=O)[C@H](CO)NC(=O)CNC(=O)CN1CCN(CC(=O)O)CCN(CC(=O)O)CCN(CC(=O)O)CC1)[C@@H](C)O)C(=O)N[C@@H](CS)C(=O)N[C@@H](CS)C(=O)N[C@@H](Cc1ccc(O)cc1)C(=O)NCC(=O)N[C@@H](Cc1c[nH]c2ccccc12)C(=O)N[C@@H](CCCNC(=N)N)C(=O)N[C@@H](CC(N)=O)C(=O)N[C@@H](CO)C(=O)N[C@@H](CO)C(=O)O [^111In-DOTA-EGFL6, metal not drawn] ({DOTA}-GSGGTKWACCYGWRNSS-OH; N-terminus and C-terminus assumed)
- tissue uptake at 2 h ([1]; Blood retention): 1.3 ± 0.51 %ID/g
- tissue uptake at 2 h ([1]; Kidney retention): 28.6 ± 4.24 %ID/g
- tissue uptake at 2 h ([1]; Non-target organ accumulation, all organs measured except the kidneys): < 1 %ID/g
- tissue to tissue ratio at 2 h ([1]; Tumor to blood ratio): 0.27
- tissue to tissue ratio at 2 h ([1]; Tumor to muscle ratio): 2.7
- tissue uptake at 2 h ([1]; Tumor uptake): 0.36 ± 0.08 %ID/g
- Radiolabel at interface between xenograft and muscle (vasculature-like binding) in SPECT/CT image [2]: strikingly high concentration of radiolabel
- Tumor uptake in SPECT/CT image ([2]; 11.1 MBq, one mouse): low tumor uptake
- Peptide binding, % of total peptide added [3]: 10.5% ± 2.7
- Peptide binding, % of total peptide added [4]: 12.3 ± 1.0%
- Peptide binding, % of total peptide added [5]: 4.7 ± 0.2%
- Peptide binding, % of total peptide added [6]: 5.4 ± 0.5%

Compound: GTKSKCCYSLRRSS [3-G03, phage selected peptide with 64% homology to EGFL6]
- Binding to MDA-MB-435 cells in vitro [7]: bound to MDA-MB-435 cells

Compound: GTKWACCYGWRNSS [Biotinylated EGFL6 peptide, EGFL6 peptide with N-terminal GSG spacer conjugated at the N-terminus with biotin]
- Peptide binding by fluorescent microscopy [8]: bound strongly
- Peptide binding by fluorescent microscopy [9]: bound strongly
- Peptide binding by fluorescent microscopy [10]: no binding

Compound: GTKWACCYGWRNSS [EGFL6 peptide]
- Peptide binding by fluorescent microscopy [11]: undetectable
